These results are taken from ChEMBL document CHEMBL2074317, “Functional characterization of an organic cation transporter (hOCT1) in a transiently transfected human cell line (HeLa)” (J Pharmacol Exp Ther, 1998).

B1: Solute carrier family 22 member 1 (Homo sapiens) (protein)
chain: MPTVDDILEQVGESGWFQKQAFLILCLLSAAFAPICVGIVFLGFTPDHHCQSPGVAELSQRCGWSPAEELNYTVPGLGPAGEAFLGQCRRYEVDWNQSALSCVDPLASLATNRSHLPLGPCQDGWVYDTPGSSIVTEFNLVCADSWKLDLFQSCLNAGFLFGSLGVGYFADRFGRKLCLLGTVLVNAVSGVLMAFSPNYMSMLLFRLLQGLVSKGNWMAGYTLITEFVGSGSRRTVAIMYQMAFTVGLVALTGLAYALPHWRWLQLAVSLPTFLFLLYYWCVPESPRWLLSQKRNTEAIKIMDHIAQKNGKLPPADLKMLSLEEDVTEKLSPSFADLFRTPRLRKRTFILMYLWFTDSVLYQGLILHMGATSGNLYLDFLYSALVEIPGAFIALITIDRVGRIYPMAMSNLLAGAACLVMIFISPDLHWLNIIIMCVGRMGITIAIQMICLVNAELYPTFVRNLGVMVCSSLCDIGGIITPFIVFRLREVWQALPLILFAVLGLLAAGVTLLLPETKGVALPETMKDAENLGRKAKPKENTIYLKVQTSEPSGT

The target of the first data set is T1, Solute carrier family 22 member 1 (Homo sapiens, UniProt O15245).
T1 sequence (O15245 whole entry): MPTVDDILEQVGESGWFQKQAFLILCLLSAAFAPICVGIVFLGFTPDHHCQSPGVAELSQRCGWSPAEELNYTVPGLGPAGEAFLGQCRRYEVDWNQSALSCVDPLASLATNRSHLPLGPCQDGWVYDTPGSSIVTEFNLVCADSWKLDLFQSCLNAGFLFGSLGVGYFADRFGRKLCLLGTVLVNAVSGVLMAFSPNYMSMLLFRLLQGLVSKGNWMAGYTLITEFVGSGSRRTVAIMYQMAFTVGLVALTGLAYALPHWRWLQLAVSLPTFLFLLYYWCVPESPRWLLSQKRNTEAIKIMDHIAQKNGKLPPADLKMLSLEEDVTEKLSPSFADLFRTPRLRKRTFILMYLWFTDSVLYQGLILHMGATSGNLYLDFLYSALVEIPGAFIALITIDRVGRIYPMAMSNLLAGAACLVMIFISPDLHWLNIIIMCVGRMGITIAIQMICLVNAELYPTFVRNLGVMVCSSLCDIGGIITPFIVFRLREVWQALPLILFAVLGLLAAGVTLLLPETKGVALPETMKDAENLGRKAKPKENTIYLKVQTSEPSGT
Nature of the data set: TP_TRANSPORTER: inhibition of TEA uptake in OCT1-expressing HeLa cells. It is filed as functional, cell-based.
One may read the Ki as the dissociation constant of the complex between target and ligand, obtained from inhibition or displacement. Low values mean a stronger hold on the target, high ones a looser hold on the target. With `CC[N+](CC)(CC)CC` [TETRYLAMMONIUM], the inhibitory constant (Ki) turned out to be 161 µM.
Still for that read-out and setting: the same measure for `Cc1ncc2n1-c1ccc(Cl)cc1C(c1ccccc1F)=NC2` [MIDAZOLAM]: 3.7 µM.
For `CCCCC[N+](CCCCC)(CCCCC)CCCCC` [TETRAPENTYLAMMONIUM], the Ki was determined as 7.46 µM.
In turn, `CCCC(=O)Nc1ccc(OCC(O)CNC(C)C)c(C(C)=O)c1` (stereo not given) [ACEBUTOLOL] gave a Ki of 95.8 µM.
The same measure, in the same setting: the value for `CCN1/C(=C/c2ccc3ccccc3[n+]2CC)C=Cc2ccccc21` was 2.73 µM.
Still for that read-out and setting: the same measure for `CC(=O)O[C@H]1C[C@@H]2CC[C@@H]3[C@H](CC[C@@]4(C)[C@H]3C[C@H]([N+]3(C)CCCCC3)[C@@H]4OC(C)=O)[C@@]2(C)C[C@@H]1N1CCCCC1` [VECURONIUM]: 232 µM.
The same measure, in the same setting: the value for `C[n+]1ccc(-c2ccccc2)cc1` was 12.3 µM.
`CNCCCN1c2ccccc2CCc2ccccc21` [DESIPRAMINE]: the Ki is 5.36 µM.
Same read-out and setting: the value for `CN/C(=N/CCSCc1nc[nH]c1C)NC#N` [CIMETIDINE] was 166 µM; that for `Clc1cccc(Cl)c1N=C1NCCN1` [CLONIDINE] was 0.55 µM.
Molecule `CNC(=O)c1cccnc1` [NICOTINYL METHYLAMIDE] returned a Ki of 7700 µM.
Still for that read-out and setting: the same measure for `CCN(CC)CCNC(=O)c1ccc(N)cc1` [PROCAINAMIDE]: 73.9 µM; for `C[C@]12C[C@H](O)[C@H]3[C@@H](CCC4=CC(=O)CC[C@@]43C)[C@@H]1CC[C@@H]2C(=O)CO` [CORTICOSTERONE]: 7.02 µM.

Substrate in a further data set: CC[N+](CC)(CC)CC
Nature of the data set: cells, lysate or membranes named.
For orientation: Km means the substrate concentration at which the rate is half of its maximum. In the case of B1, the Km is 229 µM.

For a further data set, the target named is T1, Solute carrier family 22 member 1. As to the kind of experiment: TP_TRANSPORTER: inhibition of TEA uptake (TEA: 5 uM, Amantadine: 100 uM) in OCT1-expressing HeLa cells. It is filed as functional, cell-based.
As for `NC12CC3CC(CC(C3)C1)C2` [AMANTADINE], the Activity result was “inhibitor [(at a rough estimate) 60 % of control]”.
